Laboratory results published in US5679644A, “Methods of treating diseases using triterpenoid acid derivatives” (Glycomed Incorporated, priority 1995, dated 1997).
Values joined by “and” are separate entries in the source; they are usually repeats but may differ in a detail not shown here. Equal entries are not always repeated. “Also recorded” adds a separate entry of the source. Blank lines part the entries; values can stand above or below the compound they belong to.

Assays:
5-Lipoxygenase [1] = biological target: T1, 5-Lipoxygenase (Rattus norvegicus, UniProt P12527); assay: Inhibition of 5-Lipoxygenase, crude enzyme preparation from rat basophilic leukemia cells (RBL-1); format: biochemical
T1 construct: crude enzyme preparation from rat basophilic leukemia cells (RBL-1); endogenous in cells; host or cells: RBL-1 (rat basophilic leukemia cells)
T1 sequence (P12527 1-673): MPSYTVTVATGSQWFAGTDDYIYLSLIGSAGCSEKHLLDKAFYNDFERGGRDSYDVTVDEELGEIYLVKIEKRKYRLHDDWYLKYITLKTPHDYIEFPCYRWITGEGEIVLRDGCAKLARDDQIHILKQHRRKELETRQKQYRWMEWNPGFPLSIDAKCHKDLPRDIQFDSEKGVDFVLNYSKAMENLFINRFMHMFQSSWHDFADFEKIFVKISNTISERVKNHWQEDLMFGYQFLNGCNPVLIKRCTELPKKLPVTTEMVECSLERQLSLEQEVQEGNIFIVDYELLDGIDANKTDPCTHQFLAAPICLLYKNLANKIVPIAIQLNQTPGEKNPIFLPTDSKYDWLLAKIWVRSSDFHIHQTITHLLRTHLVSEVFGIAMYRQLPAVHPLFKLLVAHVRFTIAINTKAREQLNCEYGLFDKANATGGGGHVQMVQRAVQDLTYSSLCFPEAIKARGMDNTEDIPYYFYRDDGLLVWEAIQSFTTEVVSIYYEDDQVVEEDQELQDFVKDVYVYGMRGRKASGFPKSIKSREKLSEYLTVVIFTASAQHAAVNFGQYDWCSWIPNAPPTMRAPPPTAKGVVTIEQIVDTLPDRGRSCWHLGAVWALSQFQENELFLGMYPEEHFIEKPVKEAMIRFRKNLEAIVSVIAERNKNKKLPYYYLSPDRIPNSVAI
Procedure: Thus, compounds that inhibit 5-lipoxygenase will have significant medical applications that require regulating or lowering leukotriene levels. Thus, the compounds of the instant invention were assayed for their capacity to inhibit 5-lipoxygenase. 5-Lipoxygenase assays were run using a crude enzyme preparation from rat basophilic leukemia cells (RBL-1) ([…]. and Samuelsson, B. Proc. Natl. Acad. Sci. […] W. and […]. Biol. Chem. (1985) 260:11554-11559). Test compounds were pre-incubated with the enzyme for 5 minutes at room temperature and the reaction is initiated by addition of substrate, […]. Following an 8 minute incubation at room temperature, the reaction was terminated by addition of NaOH, and absorbance read at 234 nm to determine levels of 5-HETE. Compounds were screened at 50 μM.

E-Selectin = E-Selectin chimera binding to fixed LS174T colon carcinoma cells; format: cell-based; details: for interference with cancer cell binding to E-selectin (in words): LS174T colon carcinoma cells; for IC50: lowest concentration from serial two-fold dilutions which inhibits by 50% or more relative to control, range, read-out: IC50 of Compound in Assay of E-Selectin Binding To Fixed LS174T Colon Carcinoma Cells (Range)
Procedure: Experiments were conducted to determine the capacity of the invention compounds to interfere with the binding of cancer cells to E-selectin. The compounds were dissolved in dimethylformamide (DMF) prior to being assayed. […] The mixture was rotated briskly on a rotary platform at room temperature for 30-60 minutes. Particulate matter was then removed by centrifugation, and the soluble fraction was transferred onto 96-well microtiter plates containing glutaraldehyde fixed LS174T colon carcinoma cells. […] Plates were developed in the dark and read at 405 nm. […] DMF (vehicle) typically had no effect. […] For all but 18-beta-glycyrrhetinic acid the compounds had low IC50 values, thus indicating their suitability for the treatment or prevention of certain forms of metastatic cancers.

P-selectin [2] = assay: P-selectin binding to HL-60 cells; format: cell-based; details: HL-60 assay; for IC50: P-selectin 200 ng/ml, read-out: IC50 for interfering with P-selectin binding to HL-60 cells
Procedure: (§1) In addition to E-selectin binding, certain of the invention compounds were tested for their capacity to inhibit P-selectin binding to cancer cells, and to a chemical known to bind to P-selectin, 2,3 sLex. The following materials and procedures were used.
(§2) Compound Preparation. Compound (5) of Example 5, and compound (8) of Example 8 were solubilized in DMF to yield a 100 mM solution.
(§3) P-Selectin Detection Solutions. Goat F(ab')2 anti-human IgG (Fc spec.)biotin and streptavidin-AP were diluted 1:1000 in 1% BSA-TBS with 1 mM Ca. An Elisa assay was utilized to measure P-selectin binding to 2,3 sLex, and P-selectin was added at 300 ng/ml. An Elisa assay was also used to assay for the capacity of the invention compounds to inhibit cancer cell binding to P-selectin. HL-60 cancer cells were used, and P-selectin was added at 200 ng/ml.
(§4) Plate Preparation. 2,3 sLex was coated at 30 pmoles/well to Probind microtiter plates for Elisa. The glycolipid was added at 50 μl/well in 50% MeOH and allowed to evaporate overnight. Elisa plates and HL-60 assay plates were blocked with 5% BSA-TBS Ca^++ for more than an hour at room temperature. The plates were washed with TBS without Ca^++.
Cell Preparation. HL-60 cells were harvested by centrifugation, washed with TBS no Ca^++, counted, and the density adjusted to 2×10^6 /ml in 1% BSA-TBS Ca^++.
(§5) Assay. Briefly, the assays were conducted as follows. Compounds (5) and (8) were added to P-selectin detection solutions at 4, 2, 1, 0.5, 0.25 and 0.125 mM for the HL-60 based assay, and at 2, 1, 0.5, 0.25, 0.125 and 0.063 mM for the assay involving 2,3 sLex. DMF solutions were added directly to 1% BSA/TBS-Ca for dilutions through 0.5 mM. Lower concentrations were made in serial two-fold dilutions in BSA-TBS. These solutions were incubated at room temperature on a rotating platform for 1 hour, centrifuged to pellet particulate matter, and then added in triplicate for 2,3 sLex coated plates, or quadruplicate for HL-60 cells at 50 μl/well. An equal volume of HL-60 cells was added to wells for the cell based assay. The 2,3 sLex coated plates were incubated at 37° C. for 45 minutes, washed 3× with TBS, and 50 μl of substrate added to each well. Plates with HL-60 cells were incubated at 4° C. for 1 hour, the cells pelleted by centrifugation and washed 3× with TBS. For both assays, substrate was added at 75 μl/well. After color developed to an appropriate intensity, 50 μl/well was transferred to another plate for O.D. determination at 405 nm.

[3] = test system: arachidonic acid-induced ear swelling; assay: Arachidonic acid (AA) murine skin (ear) inflammation model, topical administration; format: in vivo; details: for anti-inflammatory activity (in words): arachidonic acid murine skin inflammation model
Procedure: Using the arachidonic acid (AA), murine skin inflammation model, described by Harris, R. R. et al. (Skin Pharmacol (1990) 3:2940) the anti-inflammatory activity of 1-[3-O-(18-β-Glycyrrhetinic acid)]-2-(α-L-C-methylfucopyranose)-2',3'-propanediol (5) was tested. For comparison, 18-β-glycyrrhetinic acid was also tested. All compounds were dissolved at 100 mg/mL in methanol or chloroform (18-β-glycyrrhetinic acid) except compound (5) which was at 0.80 mg/mL. 10 μL of each compound was applied to the ear. AA was applied alone, or followed immediately with 1-[3-O-(18-β-Glycyrrhetinic acid)]-2-(α-L-C-methylfucopyranose)-2',3'-propanediol (5) or 18-β-glycyrrhetinic acid. 90 minutes later a 6 mm disk of each ear was removed and weighed.

P-selectin [4] = assay: Elisa of P-selectin binding to 2,3 sLex; details: for IC50: Elisa, P-selectin 300 ng/ml, read-out: IC50 for inhibiting P-selectin binding to 2,3 sLex
Procedure: as §1, §2, §3, §4
as §5, with “Plates with HL-60 cells were incubated at 4° C. for 1 hour, the cells pelleted by centrifugation and washed 3× with TBS. For both assays, substrate was added at 75 μl/well. After color developed to an appropriate intensity, 50 μl/well was transferred to another plate for O.D. determination at 405 nm.” left out

5-lipoxygenase [5] = details: Sotomatsu et al. 1959; Inoue et al. 1986; cited from earlier work
[6] = J. Med. Chem. (1974) 17(2):184-191; cited from earlier work

inhibition at 100 µM (5-Lipoxygenase [1]): 9% | inhibition at 1000 µM (5-Lipoxygenase [1]): 31%
SMILES: CC1(C)[C@@H](O[C@H]2O[C@H](C(=O)O)[C@@H](O)[C@H](O)[C@H]2O[C@@H]2O[C@H](C(=O)O)[C@@H](O)[C@H](O)[C@H]2O)CC[C@]2(C)[C@H]3C(=O)C=C4[C@@H]5C[C@@](C)(C(=O)O)CC[C@]5(C)CC[C@@]4(C)[C@]3(C)CC[C@@H]12 [Glycyrrhizin]

SMILES: C[C@@H]1O[C@@H](CC(O)(CO)CO[C@H]2CC[C@]3(C)[C@H]4C(=O)C=C5[C@@H]6C[C@@](C)(C(=O)O)CC[C@]6(C)CC[C@@]5(C)[C@]4(C)CC[C@H]3C2(C)C)[C@@H](O)[C@H](O)[C@@H]1O (stereo partly drawn) [Compound (5), 1-[3-O-(18-β-Glycyrrhetinic acid)]-2-(α-L-C-methylfucopyranose)-2',3'-propanediol]
interference with cancer cell binding to E-selectin (in words) (E-Selectin): markedly lower IC50 values relative to 18-beta-glycyrrhetinic acid | IC50 (E-Selectin): 60 to 125 µM | inhibition at 100 µM (5-Lipoxygenase [1]): 20% | inhibition at 1000 µM (5-Lipoxygenase [1]): 74% | inhibitory activity relative to glycyrrhizin (in words) (5-Lipoxygenase [1]; both concentrations tested): significantly greater inhibitory activity | interference with P-selectin binding to HL-60 cells (in words) (P-selectin [2]): interfered with P-selecting binding to HL-60 cells in a dose dependent manner, but was again less effective than compound (8) | IC50 (P-selectin [2]): ~2000 µM | anti-inflammatory activity (in words) [3]: significant anti-inflammatory activity | percent inhibition of swelling caused by AA alone ([3]; topical, 10 μL of 0.80 mg/mL solution, 90 minutes): about 71% | % Inhibition of Swelling ([3]; topical, arachidonic acid ear model, 800 μg applied): 71.3% | inhibition of P-selectin binding to sLex (in words) (P-selectin [4]): did inhibit P-selectin binding to sLex, it was less effective than compound (8) | IC50 (P-selectin [4]): < 1000 µM and > 500 µM

SMILES: CC1(C)[C@@H](O)CC[C@]2(C)[C@H]3C(=O)C=C4[C@@H]5C[C@@](C)(C(=O)O)CC[C@]5(C)CC[C@@]4(C)[C@]3(C)CC[C@@H]12 [Glycyrrhetinic acid]
inhibition of enzymes involved in leukotriene biosynthesis, including 5-lipoxygenase (in words) (5-lipoxygenase [5]): shown to inhibit enzymes involved in leukotriene biosynthesis, including 5-lipoxygenase activity

IC50 (E-Selectin): 60 to 250 µM | IC50 (P-selectin [2]): ~750 µM | IC50 (P-selectin [4]): ~125 µM
SMILES: C[C@@H]1O[C@@H](CC(=O)CO[C@H]2CC[C@]3(C)[C@H]4C(=O)C=C5[C@@H]6C[C@@](C)(C(=O)O)CC[C@]6(C)CC[C@@]5(C)[C@]4(C)CC[C@H]3C2(C)C)[C@@H](O)[C@H](O)[C@@H]1O [(8), 1-[3-O-(18-β-Glycyrrhetinic acid)]-2-oxo-2-(α-L-C-methylfucopyranose)-ethane]
interference with P-selectin binding to HL-60 cells (in words) (P-selectin [2]): interfered with P-selectin binding to HL-60 cells in a dose dependent way | anti-inflammatory activity (in words) [3]: activity similar to compounds (3) and (5); also recorded: significant anti-inflammatory activity

IC50 (E-Selectin): 125 to 500 µM | inhibition at 100 µM (5-Lipoxygenase [1]): 36% | inhibition at 1000 µM (5-Lipoxygenase [1]): 81%
SMILES: CC1(C)[C@@H](O)CC[C@]2(C)[C@H]3C(=O)C=C4[C@@H]5C[C@@](C)(C(=O)O)CC[C@]5(C)CC[C@@]4(C)[C@]3(C)CC[C@@H]12 [18-β-glycyrrhetinic acid]

IC50 (E-Selectin): 60 to 125 µM
SMILES: CC(CO[C@H]1CC[C@]2(C)[C@H]3C(=O)C=C4[C@@H]5C[C@@](C)(C(=O)O)CC[C@]5(C)CC[C@@]4(C)[C@]3(C)CC[C@H]2C1(C)C)C[C@@H]1O[C@@H](C)[C@@H](O)[C@@H](O)[C@@H]1O (stereo partly drawn) [(3), 1-[3-O-(18-β-Glycyrrhetinic acid)]-2-(α-L-C-methylfucopyranose)-propane]
interference with cancer cell binding to E-selectin (in words) (E-Selectin): markedly lower IC50 values relative to 18-beta-glycyrrhetinic acid | anti-inflammatory activity (in words) [3]: significant anti-inflammatory activity

SMILES: CC1(C)[C@@H](O)CC[C@]2(C)[C@H]3CC=C4[C@@H]5C[C@@](C)(C(=O)O)CC[C@]5(C)CC[C@@]4(C)[C@]3(C)CC[C@@H]12 [11-Deoxoglycyrrhetinic acid]
aldosterone (DCA)-like activity (in words) [6]: does not substantially show the DCA activity of the parent compound
